# Assay results taken from paper PMC11672637, “7-O-Carboxylic Acid-Substituted 3-O-Alkyl Difluoroquercetin; An Aztreonam-Potentiating Agent Against Carbapenemase-Producing Pseudomonas aeruginosa Through Simultaneous Inhibition of Metallo-β-Lactamase and Efflux Pump” (Antibiotics, 2024).
# Where two headings read alike, the source gives them in different places.
# How the values were obtained:
# [1] = tested on: ATM-Resistant CPPA (n = 15); experiment: MIC distribution over clinical isolates; type: cell-based, P. aeruginosa; settings: Pseudomonas aeruginosa; for inhibition at 4 µg/mL: read-out: Cumulative % inhibition by ATM, 5 at 4 mg/L; for inhibition at 8 µg/mL: read-out: Cumulative % inhibition by ATM, 5 at 8 mg/L; for inhibition at 16 µg/mL: read-out: Cumulative % inhibition by ATM, 5 at 16 mg/L; for inhibition at 32 µg/mL: read-out: Cumulative % inhibition by ATM, 5 at 32 mg/L; for inhibition at 64 µg/mL: read-out: Cumulative % inhibition by ATM, 5 at 64 mg/L
# [2] = tested on: PA-026, blaNDM; experiment: MIC / checkerboard with ATM; type: cell-based, P. aeruginosa; settings: for MIC: Pseudomonas aeruginosa, read-out: MIC of ATM with 5, PA-026
# [3] = tested on: PA-016, blaIMP; experiment: MIC / checkerboard with ATM; type: cell-based, P. aeruginosa; settings: for MIC: Pseudomonas aeruginosa, read-out: MIC of ATM with 5, PA-016
# [4] = tested on: NDM-1-Producing P. aeruginosa (PA-017, blaNDM); experiment: MIC / checkerboard with ATM; type: cell-based; settings: for MIC: Pseudomonas aeruginosa
smiles,measurement,setting,value
"CC(C)(C)CCOc1c(-c2ccc(F)c(F)c2)oc2cc(OCC(=O)O)cc(O)c2c1=O [Compound 5, 2-((2-(3,4-Difluorophenyl)-3-(3,3-dimethylbutoxy)-5-hydroxy-4-oxo-4H-chromen-7-yl)oxy)acetic Acid]",inhibition at 4 µg/mL,[1]; ATM 1 mg/L,0%
same,inhibition at 4 µg/mL,[1]; ATM 2 mg/L,0%
same,inhibition at 4 µg/mL,[1]; ATM 4 mg/L,7%
same,inhibition at 4 µg/mL,[1]; ATM 8 mg/L,67%
same,inhibition at 4 µg/mL,[1]; ATM 16 mg/L,100%
same,inhibition at 4 µg/mL,[1]; ATM 32 mg/L,100%
same,inhibition at 4 µg/mL,[1]; ATM 64 mg/L,100%
same,inhibition at 8 µg/mL,[1]; ATM 0.5 mg/L,0%
same,inhibition at 8 µg/mL,[1]; ATM 1 mg/L,0%
same,inhibition at 8 µg/mL,[1]; ATM 2 mg/L,0%
same,inhibition at 8 µg/mL,[1]; ATM 4 mg/L,47%
same,inhibition at 8 µg/mL,[1]; ATM 8 mg/L,80%
same,inhibition at 8 µg/mL,[1]; ATM 16 mg/L,100%
same,inhibition at 8 µg/mL,[1]; ATM 32 mg/L,100%
same,inhibition at 8 µg/mL,[1]; ATM 64 mg/L,100%
same,inhibition at 16 µg/mL,[1]; ATM 0.5 mg/L,0%
same,inhibition at 16 µg/mL,[1]; ATM 1 mg/L,0%
same,inhibition at 16 µg/mL,[1]; ATM 2 mg/L,13%
same,inhibition at 16 µg/mL,[1]; ATM 4 mg/L,67%
same,inhibition at 16 µg/mL,[1]; ATM 8 mg/L,93%
same,inhibition at 16 µg/mL,[1]; ATM 16 mg/L,100%
same,inhibition at 16 µg/mL,[1]; ATM 32 mg/L,100%
same,inhibition at 16 µg/mL,[1]; ATM 64 mg/L,100%
same,inhibition at 32 µg/mL,[1]; ATM 0.5 mg/L,0%
same,inhibition at 32 µg/mL,[1]; ATM 1 mg/L,0%
same,inhibition at 32 µg/mL,[1]; ATM 2 mg/L,20%
same,inhibition at 32 µg/mL,[1]; ATM 4 mg/L,80%
same,inhibition at 32 µg/mL,[1]; ATM 8 mg/L,93%
same,inhibition at 32 µg/mL,[1]; ATM 16 mg/L,100%
same,inhibition at 32 µg/mL,[1]; ATM 32 mg/L,100%
same,inhibition at 32 µg/mL,[1]; ATM 64 mg/L,100%
same,inhibition at 64 µg/mL,[1]; ATM 0.5 mg/L,0%
same,inhibition at 64 µg/mL,[1]; ATM 1 mg/L,7%
same,inhibition at 64 µg/mL,[1]; ATM 2 mg/L,27%
same,inhibition at 64 µg/mL,[1]; ATM 4 mg/L,87%
same,inhibition at 64 µg/mL,[1]; ATM 8 mg/L,93%
same,inhibition at 64 µg/mL,[1]; ATM 16 mg/L,100%
same,inhibition at 64 µg/mL,[1]; ATM 32 mg/L,100%
same,inhibition at 64 µg/mL,[1]; ATM 64 mg/L,100%
same,MIC50,"[1]; read-out: MIC50 of ATM, 5 at 1 mg/L",16 µg/mL
same,MIC50,"[1]; read-out: MIC50 of ATM, 5 at 2 mg/L",16 µg/mL
same,MIC50,"[1]; read-out: MIC50 of ATM, 5 at 4 mg/L",8 µg/mL
same,MIC50,"[1]; read-out: MIC50 of ATM, 5 at 8 mg/L",8 µg/mL
same,MIC50,"[1]; read-out: MIC50 of ATM, 5 at 16 mg/L",4 µg/mL
same,MIC50,"[1]; read-out: MIC50 of ATM, 5 at 32 mg/L",4 µg/mL
same,MIC50,"[1]; read-out: MIC50 of ATM, 5 at 64 mg/L",4 µg/mL
same,MIC90,"[1]; read-out: MIC90 of ATM, 5 at 1 mg/L",32 µg/mL
same,MIC90,"[1]; read-out: MIC90 of ATM, 5 at 2 mg/L",32 µg/mL
same,MIC90,"[1]; read-out: MIC90 of ATM, 5 at 4 mg/L",16 µg/mL
same,MIC90,"[1]; read-out: MIC90 of ATM, 5 at 8 mg/L",16 µg/mL
same,MIC90,"[1]; read-out: MIC90 of ATM, 5 at 16 mg/L",16 µg/mL
same,MIC90,"[1]; read-out: MIC90 of ATM, 5 at 32 mg/L",16 µg/mL
same,MIC90,"[1]; read-out: MIC90 of ATM, 5 at 64 mg/L",16 µg/mL
same,Activity (FICI class),[2]; PA-026,"S (S (Synergy, FICI ≤ 0.5))"
same,Concentrations of ATM and 5 at lowest FICI (ATM/5),[2]; PA-026,2/4
same,Lowest FICI (ATM/5),[2]; PA-026,0.26
same,Susceptibility to ATM,"[2]; PA-026, ATM/5","S (S (sensitive, MIC ≤ 8 mg/L))"
same,FD (fold decrease in MIC of ATM with 5),"[2]; PA-026, lowest-FICI combination",4
same,MIC,[2]; 5 at 1 mg/L,4 µg/mL
same,MIC,[2]; 5 at 2 mg/L,4 µg/mL
same,MIC,[2]; 5 at 4 mg/L,2 µg/mL
same,MIC,[2]; 5 at 8 mg/L,2 µg/mL
same,MIC,[2]; 5 at 16 mg/L,1 µg/mL
same,MIC,[2]; 5 at 32 mg/L,1 µg/mL
same,MIC,[2]; 5 at 64 mg/L,1 µg/mL
same,Activity (FICI class),[3]; PA-016,"S (S (Synergy, FICI ≤ 0.5))"
same,Concentrations of ATM and 5 at lowest FICI (ATM/5),[3]; PA-016,8/8
same,Lowest FICI (ATM/5),[3]; PA-016,0.27
same,Minimum concentration of 5 to make sensitive to ATM,[3]; PA-016,8 mg/L
same,Susceptibility to ATM,"[3]; PA-016, ATM/5","S (S (sensitive, MIC ≤ 8 mg/L))"
same,FD (fold decrease in MIC of ATM with 5),"[3]; PA-016, lowest-FICI combination",4
same,MIC,[3]; 5 at 1 mg/L,32 µg/mL
same,MIC,[3]; 5 at 2 mg/L,16 µg/mL
same,MIC,[3]; 5 at 4 mg/L,16 µg/mL
same,MIC,[3]; 5 at 8 mg/L,8 µg/mL
same,MIC,[3]; 5 at 16 mg/L,8 µg/mL
same,MIC,[3]; 5 at 32 mg/L,4 µg/mL
same,MIC,[3]; 5 at 64 mg/L,4 µg/mL
same,Activity (FICI class),[4]; PA-017,"S (S (Synergy, FICI ≤ 0.5))"
same,Concentrations of ATM and 5 at lowest FICI (ATM/5),[4]; PA-017,4/4
same,Lowest FICI (ATM/5),[4]; PA-017,0.26
same,Minimum concentration of 5 to make sensitive to ATM,[4]; PA-017,4 mg/L
same,Susceptibility to ATM,"[4]; PA-017, ATM/5","S (S (sensitive, MIC ≤ 8 mg/L))"
same,FD (fold decrease in MIC of ATM with 5),"[4]; PA-017, lowest-FICI combination",4
same,MIC,"[4]; PA-017, compound alone, read-out: MIC, Cmpd",> 256 µg/mL
same,MIC,"[4]; read-out: MIC of ATM with 5, PA-017, 5 at 1 mg/L",8 µg/mL
same,MIC,"[4]; read-out: MIC of ATM with 5, PA-017, 5 at 2 mg/L",8 µg/mL
same,MIC,"[4]; read-out: MIC of ATM with 5, PA-017, 5 at 4 mg/L",4 µg/mL
same,MIC,"[4]; read-out: MIC of ATM with 5, PA-017, 5 at 8 mg/L",4 µg/mL
same,MIC,"[4]; read-out: MIC of ATM with 5, PA-017, 5 at 16 mg/L",2 µg/mL
same,MIC,"[4]; read-out: MIC of ATM with 5, PA-017, 5 at 32 mg/L",2 µg/mL
same,MIC,"[4]; read-out: MIC of ATM with 5, PA-017, 5 at 64 mg/L",1 µg/mL
